target: Gamma-aminobutyric acid type B receptor subunit 1/2 (UniProt O88871+Q9Z0U4); test: Binding Assay
Experimental: The samples were incubated at room temperature for 60 minutes on a shaker. The incubation was stopped by rapid vacuum filtration over glass-fiber filter plates (UniFilter-96 well, GF/B membrane plates, PerkinElmer) using a 96-well plate harvester (TOMTEK Harvester). The UniFilter plate was washed five times with ice-cold wash buffer (50 mM Tris-HCl buffer, pH 7.7, 10 mM MgCl2, and 100 mM NaCl. After filtration the plate was dried for 90 minutes at 55° C. The plates were closed on the bottom with black sealing membranes, and liquid scintillation cocktail (35 μL, Betaplate Scint, PerkinElmer) was added to each well. After sealing the top of the plate, an additional incubation step of 90 minutes at room temperature followed before measuring the plate. The amount of membrane-bound [35S]GTPgS was measured using a 96-well plate reader (Microbeta , PerkinElmer).

Sequence of Gamma-aminobutyric acid type B receptor subunit 1/2 (Q9Z0U4 whole entry): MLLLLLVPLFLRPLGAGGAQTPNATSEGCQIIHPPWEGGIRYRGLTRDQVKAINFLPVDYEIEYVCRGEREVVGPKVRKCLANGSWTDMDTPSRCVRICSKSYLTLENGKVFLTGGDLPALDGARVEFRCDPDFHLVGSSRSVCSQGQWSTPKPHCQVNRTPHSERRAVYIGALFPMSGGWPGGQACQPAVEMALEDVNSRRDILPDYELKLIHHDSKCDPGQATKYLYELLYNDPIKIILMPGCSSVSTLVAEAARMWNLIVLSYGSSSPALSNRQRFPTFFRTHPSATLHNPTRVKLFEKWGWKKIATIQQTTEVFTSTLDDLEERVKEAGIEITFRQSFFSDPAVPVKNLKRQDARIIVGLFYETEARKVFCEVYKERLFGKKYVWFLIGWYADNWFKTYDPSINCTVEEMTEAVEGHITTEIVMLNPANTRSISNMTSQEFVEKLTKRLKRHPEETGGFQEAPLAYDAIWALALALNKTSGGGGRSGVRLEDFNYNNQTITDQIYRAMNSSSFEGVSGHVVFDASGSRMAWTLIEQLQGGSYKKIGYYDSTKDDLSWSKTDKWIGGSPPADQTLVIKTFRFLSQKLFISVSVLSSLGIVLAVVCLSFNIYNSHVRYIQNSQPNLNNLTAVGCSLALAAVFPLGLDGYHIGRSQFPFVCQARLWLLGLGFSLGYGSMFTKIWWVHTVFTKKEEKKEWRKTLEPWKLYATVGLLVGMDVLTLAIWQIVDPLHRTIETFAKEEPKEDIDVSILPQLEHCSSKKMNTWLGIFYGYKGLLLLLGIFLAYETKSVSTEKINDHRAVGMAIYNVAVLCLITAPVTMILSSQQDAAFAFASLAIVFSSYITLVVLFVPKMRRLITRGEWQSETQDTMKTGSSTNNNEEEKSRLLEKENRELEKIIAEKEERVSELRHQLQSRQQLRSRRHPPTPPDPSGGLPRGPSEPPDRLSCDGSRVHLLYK
Sequence of Gamma-aminobutyric acid type B receptor subunit 1/2 (O88871 whole entry): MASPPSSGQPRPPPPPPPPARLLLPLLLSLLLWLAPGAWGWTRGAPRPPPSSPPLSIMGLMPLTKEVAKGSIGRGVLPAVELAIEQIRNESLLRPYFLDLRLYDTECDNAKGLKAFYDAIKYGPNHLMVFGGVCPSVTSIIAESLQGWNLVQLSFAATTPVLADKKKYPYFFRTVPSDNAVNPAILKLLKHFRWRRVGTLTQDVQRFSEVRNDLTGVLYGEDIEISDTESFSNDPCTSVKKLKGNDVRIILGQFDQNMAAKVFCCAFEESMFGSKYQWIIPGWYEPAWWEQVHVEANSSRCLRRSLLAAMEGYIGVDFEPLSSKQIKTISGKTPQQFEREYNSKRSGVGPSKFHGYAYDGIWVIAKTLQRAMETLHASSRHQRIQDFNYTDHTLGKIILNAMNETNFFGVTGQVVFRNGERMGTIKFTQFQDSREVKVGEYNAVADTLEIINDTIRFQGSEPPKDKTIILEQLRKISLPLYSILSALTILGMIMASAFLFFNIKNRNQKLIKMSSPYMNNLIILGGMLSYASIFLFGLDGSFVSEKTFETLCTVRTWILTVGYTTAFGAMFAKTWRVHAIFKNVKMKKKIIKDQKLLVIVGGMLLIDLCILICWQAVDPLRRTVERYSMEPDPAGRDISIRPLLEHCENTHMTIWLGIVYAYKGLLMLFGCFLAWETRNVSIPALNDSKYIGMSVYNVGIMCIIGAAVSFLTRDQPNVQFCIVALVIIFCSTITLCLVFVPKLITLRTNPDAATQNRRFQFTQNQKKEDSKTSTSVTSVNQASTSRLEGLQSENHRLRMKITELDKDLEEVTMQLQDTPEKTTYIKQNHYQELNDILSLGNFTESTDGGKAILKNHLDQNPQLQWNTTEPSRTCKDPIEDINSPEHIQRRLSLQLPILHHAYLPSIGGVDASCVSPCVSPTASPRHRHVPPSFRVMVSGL

Row | EC50 [µM] | SMILES
1 | 3.54 | COc1ccc(OC)c(-c2nn(Cc3ccc(Cl)cc3)c(=O)c3c(C(C)C)noc23)c1 [US10556914, Example 13]
2 | > 10 | COc1c(NC(C)=O)cccc1-c1nn(C(C)c2ccc(Cl)cc2)c(=O)c2c(C)noc12 (stereo not drawn) [US10556914, Example 33]
3 | 2.59 | CC(=O)Nc1cccc(-c2nn(Cc3ccc(Cl)cc3)c(=O)c3c(C(C)C)noc23)c1 [US10556914, Example 96]

— BindingDB's records for patent US10556914 (ABBVIE INC.; ABBVIE DEUTSCHLAND GMBH & CO. KG, 2020)
